This passage reports Activity and Ratio results from ChEMBL document CHEMBL1649240, “Brain penetration of colistin in mice assessed by a novel high-performance liquid chromatographic technique” (Antimicrob Agents Chemother, 2009).

Common to all, as to type: ADME, organism-based
What all share (set-up): dose 5 mg/kg, route intravenous

Series [1] concerns Brain. The series is described as follows: Drug level in mouse brain homogenate assessed as compound recovery after 4 hr post dose measured on basis of intraday target compound concentration of 375 ng/g of brain tissue at 5 mg/kg, iv bolus dose by HPLC. The conditions noted are these: in vivo.
The nature of series [2]: Ratio of drug level in brain to plasma in Swiss mouse at 5 mg/kg, iv.
Series [3] deals with Brain. The series is described as follows: Drug level in mouse brain homogenate assessed as compound recovery after 4 hr post dose measured on basis of intraday target compound concentration of 93.8 ng/g of brain tissue at 5 mg/kg, iv bolus dose by HPLC. The conditions noted are these: in vivo.
Series [4] deals with Brain. The series is described as follows: Drug level in mouse brain homogenate assessed as compound recovery after 4 hr post dose measured on basis of intraday target compound concentration of 3000 ng/g of brain tissue at 5 mg/kg, iv bolus dose by HPLC. Conditions: in vivo.

Consider COLISTIN, for which the results for the Activity in the series on Brain [1], with Brain [3] and in the series with Brain [4] were 86%, 87% and 96%, respectively. Moreover, the Ratio in series [2] is recorded as 0.02.
